Patent US9345739B2, “Methods and compositions for the treatment of proteinuric diseases” (The General Hospital Corporation, priority 2007, dated 2016)
“Also recorded” adds a separate entry of the source. One block for each molecule: values may come before it.

What was measured:
cultured podocytes [1] = assay: Multiwell Boyden chamber assay, random podocyte migration on vitronectin; format: cell-based, mouse; conditions: wild type podocytes, treatment for 24 h
Method: Podocyte migration was analyzed using a 12-well chemotaxis chamber (Neuro Probe) according to the manufacturer's protocol. In brief, differentiated podocytes were treated with 50 μg/ml of LPS or PAN for 24 h and then harvested for the migration assay. Bottom plates were coated with vitronectin or type I collagen, while upper plates were loaded with equal number of cells (5×10^4) suspended in medium. The chamber was incubated at 37° C. for 4 h before the membrane was taken out and stained with diamidino phenylindole (DAPI). The average number of migrated cells was counted in four fields in six independent experiments.

cultured podocytes [2] = assay: Scrape wound (wound healing) assay, directed podocyte motility; format: cell-based, mouse; conditions: for directed podocyte motility into the wound track: wild type podocytes, vitronectin-coated surface, treatment for 24 h
Method: To study the directional movement of podocytes, a wound healing assay was performed. Briefly, podocytes were seeded on Vn or type I collagen coated cover-slips and cultured for 10 days at 37° C. before treated with LPS or PAN for 12-48 h. To create a scrape wound approximately 0.1 cm wide, the narrow end of a P1000 pipette tip was perpendicularly pushed through the monolayer. Then, cover-slips were washed twice with PBS and incubated in medium. After incubation, cells were fixed with 2% PFA and stained with DAPI for analysis. The cell migratory distance was calculated by averaging the distance from the wound edge to the maximally migrated cell in five distinct border zones.

uPAR = assay: Induction of uPAR in cultured podocytes, relative quantification; format: cell-based, mouse
αvβ3 integrin [3] = biological target: T1, αvβ3 integrin (Mus musculus, UniProt O54890+P43406); assay: Recovery of already existing LPS-induced proteinuria, urine Bradford assay; format: in vivo; conditions: B6 mice, LPS at 0 and 24 h; 25 mg/kg body weight through tail vein 48 h after first injection
T1 construct: from tissue; host or cells: living wild type (C57BL/6, 'B6') mice
T1 sequence (P43406 31-1044): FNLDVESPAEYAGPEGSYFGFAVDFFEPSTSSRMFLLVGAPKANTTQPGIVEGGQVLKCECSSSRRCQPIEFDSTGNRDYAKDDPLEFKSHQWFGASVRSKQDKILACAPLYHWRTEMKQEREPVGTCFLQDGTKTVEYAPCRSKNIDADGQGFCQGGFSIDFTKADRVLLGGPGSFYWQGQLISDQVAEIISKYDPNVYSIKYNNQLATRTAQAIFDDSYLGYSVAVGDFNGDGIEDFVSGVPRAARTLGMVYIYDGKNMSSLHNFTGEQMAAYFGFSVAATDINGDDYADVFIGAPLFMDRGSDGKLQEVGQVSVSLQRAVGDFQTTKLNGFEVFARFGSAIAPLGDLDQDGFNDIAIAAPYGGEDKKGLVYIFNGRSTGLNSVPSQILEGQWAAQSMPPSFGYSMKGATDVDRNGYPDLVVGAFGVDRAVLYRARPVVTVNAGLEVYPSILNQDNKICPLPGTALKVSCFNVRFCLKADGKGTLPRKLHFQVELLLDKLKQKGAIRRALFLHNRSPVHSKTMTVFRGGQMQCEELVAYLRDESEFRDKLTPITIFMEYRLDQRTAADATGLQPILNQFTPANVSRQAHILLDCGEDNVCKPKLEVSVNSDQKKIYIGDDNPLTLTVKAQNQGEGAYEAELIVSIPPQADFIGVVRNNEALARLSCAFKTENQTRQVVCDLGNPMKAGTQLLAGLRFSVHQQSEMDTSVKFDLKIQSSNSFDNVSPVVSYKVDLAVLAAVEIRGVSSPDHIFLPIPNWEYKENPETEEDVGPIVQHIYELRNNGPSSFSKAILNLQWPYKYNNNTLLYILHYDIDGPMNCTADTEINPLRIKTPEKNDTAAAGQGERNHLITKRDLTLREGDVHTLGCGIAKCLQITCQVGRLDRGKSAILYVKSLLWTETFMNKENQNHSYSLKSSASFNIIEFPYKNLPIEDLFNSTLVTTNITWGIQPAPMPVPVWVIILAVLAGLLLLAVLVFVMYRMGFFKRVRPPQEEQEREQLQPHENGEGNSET
T1 sequence (O54890 26-787): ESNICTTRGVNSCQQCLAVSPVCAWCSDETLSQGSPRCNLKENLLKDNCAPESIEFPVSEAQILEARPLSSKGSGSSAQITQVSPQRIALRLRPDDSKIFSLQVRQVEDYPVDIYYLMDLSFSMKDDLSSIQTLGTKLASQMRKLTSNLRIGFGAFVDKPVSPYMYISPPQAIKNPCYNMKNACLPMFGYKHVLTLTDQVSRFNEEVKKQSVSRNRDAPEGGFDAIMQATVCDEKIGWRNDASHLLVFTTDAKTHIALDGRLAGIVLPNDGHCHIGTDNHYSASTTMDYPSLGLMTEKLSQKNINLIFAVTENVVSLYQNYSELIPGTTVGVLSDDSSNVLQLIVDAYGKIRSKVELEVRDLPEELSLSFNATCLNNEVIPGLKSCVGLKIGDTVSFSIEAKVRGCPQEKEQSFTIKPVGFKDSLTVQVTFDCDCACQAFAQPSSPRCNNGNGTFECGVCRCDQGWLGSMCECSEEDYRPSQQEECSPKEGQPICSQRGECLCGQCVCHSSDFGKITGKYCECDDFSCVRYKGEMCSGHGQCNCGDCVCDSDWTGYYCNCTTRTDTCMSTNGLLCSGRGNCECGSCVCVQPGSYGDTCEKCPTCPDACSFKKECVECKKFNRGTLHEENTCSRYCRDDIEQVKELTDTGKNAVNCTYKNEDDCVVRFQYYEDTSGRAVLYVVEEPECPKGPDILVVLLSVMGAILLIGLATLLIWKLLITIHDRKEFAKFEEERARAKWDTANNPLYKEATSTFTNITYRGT
Method: B6 mice are injected twice (0, 24 h) with LPS to induce and maintain proteinuria. 48 h after first injection, S247 (n=6) is administered (25 mg/kg body weight) through tail vein. Control (n=5) received the same amount of PBS. 0, 48 h, 66 h urine was collected for Braford assay.

β3 integrin = assay: Active β3 integrin (AP5 staining) in LPS treated cultured podocytes; format: cell-based, mouse; conditions: disruption of lipid rafts
Excerpt: Cultured podocytes were immunolabeled as described previously^8.

[4] = biological target: β3 integrin on cultured mouse podocytes (mouse) (UniProt O54890); assay: flow cytometry, LPS treated mouse podocytes, 5 µg/ml AP5, 1.0 mM Ca2+
[5] = biological target: β3 integrin on cultured mouse podocytes (mouse) (UniProt O54890); assay: flow cytometry, LPS treated mouse podocytes, 5 µg/ml AP5, 2.0 mM Ca2+
[6] = biological target: β3 integrin on cultured mouse podocytes (mouse) (UniProt O54890); assay: flow cytometry, LPS treated mouse podocytes, 5 µg/ml AP5, 1 mM EDTA
[7] = biological target: β3 integrin on cultured mouse podocytes (mouse) (UniProt O54890); assay: flow cytometry, LPS treated mouse podocytes, 5 µg/ml AP5, 0.1 mM Ca2+
[8] = biological target: β3 integrin on cultured mouse podocytes (mouse) (UniProt O54890); assay: flow cytometry, LPS treated mouse podocytes, 5 µg/ml AP5, 0.4 mM Ca2+
Rac1 = assay: GTPase activity assay in isolated glomeruli (Rac1); format: in vivo, mouse; conditions: wild type mice co-injected with LPS and RGDfV (every 8 hours for 24 hours)
Method: (§1) Rho family small GTPase activity in glomerular lysates was measured by Rho/Rac/Cdc42 activation assay kit (Cell Biolabs, INC.) following the manufacturer's protocol. Isolated glomeruli from wild type and uPAR^−/− mice, some of them treated with LPS (t=0) and with RGDfV (SEQ ID NO: 1) every 8 hours for 24 hours were obtained by standard sieve technique^25. 2 mg of glomerular lysate were used to prepare for positive or negative control by incubating with 10 μl of GTPγS or GDP respectively. For small GTPase pull-down assay, the same amount (2 mg) of glomerulus lysates from different treatments were incubated with 40 μl of Rhotekin RBD or PAK PBD agarose bead slurry for 1 h at 4° C. After washing 3 times with 1× assay buffer, beads were harvested and resuspended in LDS sample buffer. Samples were heated for 10 min at 70° C. before SDS-PAGE. After electrophoresis and protein transfer, the membranes were blocked with 5% milk, and incubated with anti-Rho, anti-Rac, and anti-Cdc42 antibodies for 1 h, followed by second antibody incubation and detection with ECL (Pierce). For loading control, 100 μg of glomerular lysates from different treatments were applied and immunoblotted with the same anti-Rho, anti-Cdc42 and anti-Rac antibodies as used above.

cdc42 = assay: GTPase activity assay in isolated glomeruli (cdc42); format: in vivo, mouse; conditions: wild type mice co-injected with LPS and RGDfV (every 8 hours for 24 hours)
Method: as §1

[9] = test system: wild type and uPAR−/− mice; assay: LPS mouse model of proteinuria in wild type and uPAR−/− mice, urine Bradford assay; format: in vivo; parameters: unit not given beside the values; conditions: LPS injection
Excerpt: All animal studies were approved by the Subcommittee on Research Animal Care of the Massachusetts General Hospital. uPAR^−/− mice and uPA^−/− mice on a mixed background of 75% C57BL/6 and 25% 129 Swiss were obtained from University of Leuven, Belgium; Vn^−/− mice (C57BL/6) were obtained from Dr. David Ginsburg, University of Michigan; β3 integrin^−/− mice (C57BL/6) were obtained from Dr. Raghuram Kalluri, Boston. C57BL/6 and 129 Swiss mice were purchased from Jackson Laboratory (Bar Harbor). The LPS mouse model was utilized as previously described^9. The induction of B7-1 was used as a control for the effectiveness of LPS. Rat PAN nephrosis model was set up by a single intraperitoneal injection of puromycin (15 mg/100 g of body weight, Sigma-Aldrich) into Sprague-Dawley rats as described before^27. NZB/W F1 mice were purchased from the Jackson Laboratory and analyzed after 20 weeks when proteinuria and Lupus glomerulonephritis were present. As diabetic nephropathy rat model, we used Sprague Dawley rats treated with Streptozotocin. Hyperglycaemic state was induced by an intraperitoneal Streptozotocin injection (50-70 mg/kg body weight, in citrate buffer 10 mmol/L, pH 4.5). The hyperglycaemic state developed within 48 h and was maintained during the lifetime of the animals. No insulin administration was required. Glycosuria was evaluated with test strips of the Uriscan TM (YD Diagnostics, VWR, Montréal, QC, Canada) and glycaemia with the AccuSoft Monitoring System (Roche Diagnostics, Laval, QC, Canada). At the end of the study, glycaemia values were 4.3±0.53 and 8.5±0.7 mmol/L for 3 months-old and 12 months-old normoglycaemic animals, respectively, and 21.2±0.9 and 33.9±4.0 mmol/L for 3 months-old and 12 months-old diabetic animals, respectively.
uPAR-cDNA plasmids were introduced into uPAR^−/− mouse using the TransIT in vivo gene delivery system (Mims) as described previously^32,8. The following cDNAs and vector constructs were used for gene delivery: uPAR; mutated uPAR D262A^38 (kind gift from Y Wei and H A Chapman, University of California, San Francisco); β3 integrin and the constitutively active form of β3 integrin, D616-690 (β3Δ616-690)^48; Podocin promoter vector p2.5^33 (a kind gift from Dr. L B Holzman, University of Michigan) for Pod-uPAR; ICAM-2 promoter vector^34 for ICAM-2-uPAR. Tissues were analyzed for expression as described previously^8.

αvβ3 integrin [10] = biological target: T1, αvβ3 integrin; format: in vivo; conditions: mice, LPS only (200 μg intraperitoneally), urine 24 h after LPS
Method: Immediately after the first injection, 200 μg of LPS was injected intraperitoneally into each mouse to induce proteinuria. 24 h after LPS injection, urine was collected for Braford assay.

Molecule: CN(C)c1ncnc2c1ncn2[C@@H]1O[C@H](CO)[C@@H](N)[C@H]1O [PAN, puromycin aminonucleoside]
- podocyte migration (migrated podocytes) (cultured podocytes [1]): 67±4.9
- directed podocyte motility into the wound track (cultured podocytes [2]): 79.31±3.72
- Relative quantification of uPAR induction (uPAR): 0.61±0.10

- already existing proteinuria; urinary protein at timepoint 66 h (αvβ3 integrin [3]): Reduction of urinary protein
Molecule: O=C(O)C[C@H](NC(=O)CNC(=O)c1cncc(NC2=NCC(O)CN2)c1)c1cc(Cl)cc(Br)c1O (stereo partly drawn) [S247]

Molecule: Methyl-β-cyclodextrin
- activation of β3 integrin in response to LPS (AP5 staining) (β3 integrin): abrogated

- Fluorescent intensity units (fluorescent intensity units) [4]: 535
- Fluorescent intensity units (fluorescent intensity units) [5]: 312
- Fluorescent intensity units (fluorescent intensity units) [6]: 3020
- Fluorescent intensity units (fluorescent intensity units) [7]: 3060
- Fluorescent intensity units (fluorescent intensity units) [8]: 1640
Molecule: anti-active β3 integrin antibody AP5 (GTI)

- induction of active Rac1 in glomeruli (Rac1): inhibited
- induction of active cdc42 in glomeruli (cdc42): inhibited
Molecule: cyclo-[Arg-Gly-Asp-D-Phe-Val] [cyclo-RGDfV]

Molecule: lipopolysaccharide [LPS]
- podocyte migration (migrated podocytes) (cultured podocytes [1]): 72±5.5
- directed podocyte motility into the wound track (cultured podocytes [2]): 85.34±4.1
- proteinuria (urine Bradford assay) ([9]; uPAR−/− mice reconstituted with uPAR-cDNA): 0.92±0.46
- proteinuria (urine Bradford assay) ([9]; uPAR−/− mice which received control plasmids): 0.26±0.15
- proteinuria (urine Bradford assay) ([9]; uPAR−/− mice): 0.32±0.14
- proteinuria (urine Bradford assay) ([9]; wild type mice): 0.82±0.32
- Relative quantification of uPAR induction (uPAR): 0.49±0.06
- proteinuria (urine Bradford assay) (αvβ3 integrin [10]): 0.924±0.1055

Molecule: urokinase
- podocyte directional migration / motility (cultured podocytes [2]; cultured podocytes, addition of external urokinase): did not alter; also recorded: did not modify
